{
  "source": "patent US11400058B2",
  "about": "“Intravenous formulations of coenzyme Q10 (CoQ10) and methods of use thereof” (Berg LLC, priority 2010, dated 2022)",
  "key": {"[1]": {"settings": "rats, oral; cited from earlier work"}, "in vivo [2]": {"assay": "in vivo", "settings": "beagle, dog, iv", "description": "(§1) In the second dog toxicity study, Charles River Study Number 20000334, CoQ10 IV Formulation was administered as short intravenous infusions at the rate of 5.0 mL/min three times a week for four weeks.\n(§2) An additional two dogs/sex were included in each group and maintained for a 2-week recovery after treatment. A single test article concentration of 40 mg/mL was provided for use on the study. […] Parameters evaluated included cageside observations, clinical observations, body weight, food consumption, ophthalmoscopy, electrocardiography, clinical pathology, gross pathology, organ weights, and histopathology. Blood samples for determination of the plasma concentrations of CoQ10 IV Formulation were collected pre-dose and at 5, 15, 30 and 60 minutes and at 2, 4, 8 and 24 hours post-dose on Days 1 and 26."}, "[3]": {"settings": "beagle, dog, in vivo, iv", "description": "as §1, §2"}, "in vivo [4]": {"assay": "in vivo", "settings": "Sprague Dawley, rat, iv", "description": "In the second rat toxicity study, Charles River Study Number 20000328, CoQ10 was administered as short intravenous infusions at the rate of 1.0 mL/min three times a week for four weeks. For the toxicokinetic evaluation, three groups of nine male and nine females received 62.5, 125, and 250 mg/kg CoQ10 IV Formulation (Table 20). On Days 1 and 26, samples were collected from subgroups of three males and three females at 5 and 15 minutes, and at 1, 4, 24 and 48 hr post-dose.\n4-Week Repeat-Dose Toxicology Study of CoQ10 IV Formulation In Rats: Four groups of young adult Sprague Dawley rats (n=10/sex/group) received the vehicle (PBS containing Poloxamer 188 and DMPC) or the test article at doses of 0, 62.5, 125 and 250 mg/kg by IV injection three times per week (Charles River Laboratories Study Number 20000328; Table 26). An additional 5 rats/sex were included in each group and were maintained after treatment for a 2-week recovery period. […] The vehicle was administered at the same dose volume as the high-dose group. Additionally, three groups of 9 animals/sex served as toxicokinetic (TK) animals and received the test article in the same manner as the main study groups. […] Blood samples for determination of the plasma concentrations of the test article were collected from cohorts of three TK animals per sex per dose group at 5, 15 and 60 minutes and at 4, 24 and 48 hours after dosing on Days 1 and 28 (after the last dose)."}},
  "note": "Where two headings read alike, the source gives them in different places.",
  "data": [
    {"smiles": "COC1=C(OC)C(=O)C(C/C=C(\\C)CC/C=C(\\C)CC/C=C(\\C)CC/C=C(\\C)CC/C=C(\\C)CC/C=C(\\C)CC/C=C(\\C)CC/C=C(\\C)CC/C=C(\\C)CCC=C(C)C)=C(C)C1=O", "note": "[CoQ10, Coenzyme Q10]", "values": [
      {"measurement": "orally-administered CoQ10 absorbed", "setting": "[1]", "value": "2-3%"},
      {"measurement": "AUC0-t", "setting": "in vivo [2]; female, 31.25 mg/kg", "value": 1220, "unit": "µg·h/mL"},
      {"measurement": "AUC0-t", "setting": "in vivo [2]; female, 62.5 mg/kg", "value": 2920, "unit": "µg·h/mL"},
      {"measurement": "AUC0-t", "setting": "in vivo [2]; female, 125 mg/kg", "value": 12500, "unit": "µg·h/mL"},
      {"measurement": "AUC0-t", "setting": "in vivo [2]; male, 31.25 mg/kg", "value": 1130, "unit": "µg·h/mL"},
      {"measurement": "AUC0-t", "setting": "in vivo [2]; male, 62.5 mg/kg", "value": 3350, "unit": "µg·h/mL"},
      {"measurement": "AUC0-t", "setting": "in vivo [2]; male, 125 mg/kg", "value": 12800, "unit": "µg·h/mL"},
      {"measurement": "AUC0-t", "setting": "[3]; female, 31.25 mg/kg", "value": 1207, "unit": "µg·h/mL"},
      {"measurement": "AUC0-t", "setting": "[3]; female, 62.5 mg/kg", "value": 2735, "unit": "µg·h/mL"},
      {"measurement": "AUC0-t", "setting": "[3]; female, 125 mg/kg", "value": 7370, "unit": "µg·h/mL"},
      {"measurement": "AUC0-t", "setting": "[3]; male, 31.25 mg/kg", "value": 1038, "unit": "µg·h/mL"},
      {"measurement": "AUC0-t", "setting": "[3]; male, 62.5 mg/kg", "value": 2719, "unit": "µg·h/mL"},
      {"measurement": "AUC0-t", "setting": "[3]; male, 125 mg/kg", "value": 7151, "unit": "µg·h/mL"},
      {"measurement": "AUC0-t", "setting": "in vivo [4]; female, 62.5 mg/kg", "value": 2690, "unit": "µg·h/mL"},
      {"measurement": "AUC0-t", "setting": "in vivo [4]; female, 125 mg/kg", "value": 5110, "unit": "µg·h/mL"},
      {"measurement": "AUC0-t", "setting": "in vivo [4]; female, 250 mg/kg", "value": 15500, "unit": "µg·h/mL"},
      {"measurement": "AUC0-t", "setting": "in vivo [4]; male, 62.5 mg/kg", "value": 3000, "unit": "µg·h/mL"},
      {"measurement": "AUC0-t", "setting": "in vivo [4]; male, 125 mg/kg", "value": 6870, "unit": "µg·h/mL"},
      {"measurement": "AUC0-t", "setting": "in vivo [4]; male, 250 mg/kg", "value": 16600, "unit": "µg·h/mL"}
    ]}
  ]
}
